Experiments:
FSHR = target: T1, FSHR (Homo sapiens, UniProt P23945); assay: EC50 of cyclic AMP production in CHO FSHR cells + EC20 FSH (Assay A); format: cell-based; conditions: CHO-FSHR-LUC cells, in presence of EC20 FSH, cAMP HTRF, 1 h 37° C.
T1 construct: expressed in transfected cells; host or cells: CHO cells, clone Cho-FSHR-LUC-1-1-43
T1 sequence (P23945 18-695): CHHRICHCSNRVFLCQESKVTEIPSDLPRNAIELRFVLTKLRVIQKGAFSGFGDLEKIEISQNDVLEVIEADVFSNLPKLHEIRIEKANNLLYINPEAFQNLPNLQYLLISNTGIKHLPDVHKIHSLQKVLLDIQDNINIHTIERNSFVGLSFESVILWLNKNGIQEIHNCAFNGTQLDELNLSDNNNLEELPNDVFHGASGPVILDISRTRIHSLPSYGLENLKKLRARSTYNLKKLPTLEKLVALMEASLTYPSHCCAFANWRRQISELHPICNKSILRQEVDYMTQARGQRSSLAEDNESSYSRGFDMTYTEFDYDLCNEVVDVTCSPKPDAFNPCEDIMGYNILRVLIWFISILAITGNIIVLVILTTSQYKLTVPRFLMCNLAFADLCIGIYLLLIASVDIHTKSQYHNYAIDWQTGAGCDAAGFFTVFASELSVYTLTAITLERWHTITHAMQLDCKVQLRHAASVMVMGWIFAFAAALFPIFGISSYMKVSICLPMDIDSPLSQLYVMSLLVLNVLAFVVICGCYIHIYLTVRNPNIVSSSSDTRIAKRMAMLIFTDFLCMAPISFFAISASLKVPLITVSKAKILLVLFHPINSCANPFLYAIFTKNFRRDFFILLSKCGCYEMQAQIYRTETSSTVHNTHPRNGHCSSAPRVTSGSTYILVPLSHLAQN

[1] = target: T2, follicle-stimulating hormone (FSH) receptor (Rattus norvegicus, UniProt P20395); assay: Rat Granulosa EC50 FSH (Assay B); format: cell-based; conditions: rat granulosa cells, per Yanofsky et al. 2006
T2 construct: Rat Granulosa EC50 FSH (Assay B); endogenous in cells; host or cells: rat granulosa cells
T2 sequence (P20395 18-692): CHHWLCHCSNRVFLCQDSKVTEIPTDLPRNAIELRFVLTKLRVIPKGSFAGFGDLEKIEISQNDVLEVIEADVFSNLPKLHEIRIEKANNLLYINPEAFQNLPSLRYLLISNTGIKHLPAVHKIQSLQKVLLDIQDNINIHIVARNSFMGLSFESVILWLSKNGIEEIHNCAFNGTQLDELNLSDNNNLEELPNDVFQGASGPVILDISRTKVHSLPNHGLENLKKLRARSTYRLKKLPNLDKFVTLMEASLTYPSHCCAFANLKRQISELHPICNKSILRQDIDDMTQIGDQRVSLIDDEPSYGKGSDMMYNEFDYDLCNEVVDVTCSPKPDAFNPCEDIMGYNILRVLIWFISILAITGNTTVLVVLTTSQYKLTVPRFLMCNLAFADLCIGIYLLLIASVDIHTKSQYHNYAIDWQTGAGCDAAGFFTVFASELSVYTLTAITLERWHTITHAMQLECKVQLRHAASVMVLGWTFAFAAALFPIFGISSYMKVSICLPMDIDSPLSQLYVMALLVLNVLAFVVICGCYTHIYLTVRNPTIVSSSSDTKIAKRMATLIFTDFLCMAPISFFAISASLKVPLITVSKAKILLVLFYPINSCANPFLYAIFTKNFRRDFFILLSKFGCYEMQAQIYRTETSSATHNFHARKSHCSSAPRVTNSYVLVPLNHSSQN

| EC50 (FSHR) [nM] | EC50 [1] [nM] | Compound |
| --- | --- | --- |
| < 100 | 100 to 1000 | COc1cc2c(cc1OC(C)C)-n1c(-c3cccs3)nc(C(=O)N3CCCN(C(=O)C4CCC4)CC3)c1CC2 [Compound 7] |
| < 100 | > 5000 | COc1cc2c(cc1-c1ccn(C)c1)-n1c(-c3cccs3)nc(C(=O)N3CCOCC3(C)C)c1CC2 [Compound 143, (3,3-Dimethyl-morpholin-4-yl)-[7-methoxy-8-(1-methyl-1H-pyrrol-3-yl)-1-thiophen-2-yl-4,5-dihydro-imidazo[1,5-a]quinolin-3-yl]-methanone] |
| < 100 | < 100 | COc1cc2c(cc1OC(C)C)-n1c(-c3ccsc3)nc(C(=O)N3CCCN(C(=O)C4CCC4)CC3)c1CC2 [Compound 6] |
| 100 to 1000 | > 5000 | COc1cc2c(cc1OC(C)C)-n1c(-c3cccn3C)nc(C(=O)N3CCOCC3(C)C)c1CC2 [Compound 38] |
| 100 to 1000 | > 5000 | COc1cc2c(cc1CC(C)C)-n1c(-c3ccc[nH]3)nc(C(=O)N3CCOCC3(C)C)c1CC2 [Compound 30, (3,3-Dimethyl-morpholin-4-yl)-[8-isobutyl-7-methoxy-1-(1H-pyrrol-2-yl)-4,5-dihydro-imidazo[1,5-a]quinolin-3-yl]-methanone] |
| < 100 | > 5000 | COc1cc2c(cc1OC(C)C)-n1c(-c3ccsc3)nc(C(=O)N(C)C(C)(C)C)c1CO2 [Compound 135, 8-Isopropoxy-7-methoxy-1-thiophen-3-yl-4H-5-oxa-2,9b-diaza-cyclopenta[a]naphthalene-3-carboxylic acid tert-butyl-methyl-amide] |
| < 100 | 100 to 1000 | COc1cc2c(cc1CC(C)C)-n1c(-c3ccc(Cl)s3)nc(C(=O)N(C)C(C)(C)C)c1CC2 [Compound 97, 1-(5-Chloro-thiophen-2-yl)-8-isobutyl-7-methoxy-4,5-dihydro-imidazo[1,5-a]quinoline-3-carboxylic acid tert-butyl-methyl-amide] |
| 100 to 1000 | 100 to 1000 | COc1cc2c(cc1OC(C)C)-n1c(-c3cccc(Cl)c3F)nc(C(=O)N3CCOCC3(C)C)c1CC2 [Compound 134] |

From patent publication US10138233B2, “Imidazole compounds as modulators of FSHR and uses thereof” (Merck Patent GmbH, priority 2013, dated 2018)
